Source: patent publication US20240317735A1, “HYDROISOQUINOLINE OR HYDRONAPHTHYRIDINE COMPOUNDS FOR THE TREATMENT OF AUTOIMMUNE DISEASE” (Hoffmann-La Roche Inc., priority 2020, published 2024)

Target: T1, TLR9 (Homo sapiens, UniProt Q9NR96)
T1 sequence (Q9NR96 26-1032): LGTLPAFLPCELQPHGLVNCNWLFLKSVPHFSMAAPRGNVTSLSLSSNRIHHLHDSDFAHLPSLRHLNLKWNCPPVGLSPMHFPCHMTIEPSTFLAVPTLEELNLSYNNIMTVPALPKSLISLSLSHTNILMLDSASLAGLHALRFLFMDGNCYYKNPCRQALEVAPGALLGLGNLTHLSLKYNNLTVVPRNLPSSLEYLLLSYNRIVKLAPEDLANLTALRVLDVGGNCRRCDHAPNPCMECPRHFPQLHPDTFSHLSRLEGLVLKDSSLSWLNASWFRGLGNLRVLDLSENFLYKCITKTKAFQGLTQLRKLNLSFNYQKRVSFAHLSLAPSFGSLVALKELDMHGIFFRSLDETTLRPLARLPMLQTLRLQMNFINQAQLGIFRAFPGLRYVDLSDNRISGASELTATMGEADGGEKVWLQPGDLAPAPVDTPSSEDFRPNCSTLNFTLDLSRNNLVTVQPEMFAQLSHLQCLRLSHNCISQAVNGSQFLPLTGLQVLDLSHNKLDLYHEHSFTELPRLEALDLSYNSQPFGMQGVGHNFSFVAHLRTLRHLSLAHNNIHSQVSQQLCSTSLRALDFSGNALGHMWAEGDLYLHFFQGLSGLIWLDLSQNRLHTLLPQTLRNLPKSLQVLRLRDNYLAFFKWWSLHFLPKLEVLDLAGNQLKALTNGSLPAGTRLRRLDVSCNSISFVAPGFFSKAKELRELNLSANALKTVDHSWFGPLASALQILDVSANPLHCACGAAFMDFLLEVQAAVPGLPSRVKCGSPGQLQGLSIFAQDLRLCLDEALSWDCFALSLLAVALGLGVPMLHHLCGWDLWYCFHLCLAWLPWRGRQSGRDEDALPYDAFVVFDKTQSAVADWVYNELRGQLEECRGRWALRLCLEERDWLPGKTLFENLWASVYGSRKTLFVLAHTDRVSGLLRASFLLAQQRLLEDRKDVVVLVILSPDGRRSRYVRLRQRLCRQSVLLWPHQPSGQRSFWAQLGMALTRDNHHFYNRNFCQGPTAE
Experiment: HEK293-Blue-hTLR-9 cells assay (SEAP reporter, ODN2006 stimulation)
Assay type: cell-based
Design: host or cells: HEK293 (HEK-Blue hTLR9)
Details: HEK293-Blue-hTLR9 cells, ODN2006, 20 hrs; read-out: HEK/hTLR9 IC50
Description: The following tests were carried out in order to determine the activity of the compounds of formula (I) and (Ia) in HEK293-Blue-hTLR-7/8/9 cells assay.
A stable HEK293-Blue-hTLR-9 cell line was purchased from InvivoGen (Cat. #: hkb-htlr9, San Diego, California, USA). These cells were originally designed for studying the stimulation of human TLR9 by monitoring the activation of NF-κB. A SEAP (secreted embryonic alkaline phosphatase) reporter gene was placed under the control of the IFN-β minimal promoter fused to five NF-κB and AP-1-binding sites. The SEAP was induced by activating NF-κB and AP-1 via stimulating HEK-Blue hTLR9 cells with TLR9 ligands. Therefore the reporter expression was declined by TLR9 antagonist under the stimulation of a ligand, such as ODN2006 (Cat. #: tlrl-2006-1, Invivogen, San Diego, California, USA), for incubation of 20 hrs. The cell culture supernatant SEAP reporter activity was determined using QUANTI-Blue™ kit (Cat. #: rep-qb1, Invivogen, San Diego, California, USA) at a wavelength of 640 nm, a detection medium that turns purple or blue in the presence of alkaline phosphatase.
HEK293-Blue-hTLR9 cells were incubated at a density of 250,000-450,000 cells/mL in a volume of 170 μL in a 96-well plate in Dulbecco's Modified Eagle's medium (DMEM) containing 4.5 g/L glucose, 50 U/mL penicillin, […], […], 2 mM L-glutamine, 10% (v/v) heat-inactivated fetal bovine serum with addition of 20 μL test compound in a serial dilution in the presence of final DMSO at 1% and 10 μL of 20 uM ODN2006 in above DMEM, perform incubation under 37° C. in a CO2 incubator for 20 hrs. Then 20 μL of the supernatant from each well was incubated with 180 μL Quanti-blue substrate solution at 37° C. for 2 h and the absorbance was read at 620˜655 nm using a spectrophotometer.
The signaling pathway that TLR9 activation leads to downstream NF-κB activation has been widely accepted, and therefore similar reporter assay was modified for evaluating TLR9 antagonist.

| Structure (SMILES) | IC50 [nM] |
| --- | --- |
| C[C@H]1CN(c2ccnc3c2cnn3C)Cc2ccc(N3CCNCC3)nc21 [Example 62, (8S)-8-methyl-6-(1-methylpyrazolo[3,4-b]pyridin-4-yl)-2-piperazin-1-yl-7,8-dihydro-5H-1,6-naphthyridine] | 264 |
| Cc1cc(N2Cc3ccc(N4CCC(O)(CN(C)C)CC4)cc3[C@@H](C)C2)c2cnn(C)c2n1 [Example 14, 4-[(dimethylamino)methyl]-1-[(4R)-2-(1,6-dimethylpyrazolo[3,4-b]pyridin-4-yl)-4-methyl-3,4-dihydro-1H-isoquinolin-6-yl]piperidin-4-ol] | 158 |
| C[C@H]1CN(c2ccnc3c2cnn3C)Cc2ccc(N3CCN(Cc4cn(C)cn4)CC3)cc21 [Example 37, (4R)-4-methyl-6-[4-[(1-methylimidazol-4-yl)methyl]piperazin-1-yl]-2-(1-methylpyrazolo[3,4-b]pyridin-4-yl)-3,4-dihydro-1H-isoquinoline] | 222 |
| C[C@H]1CN(c2ccnc3c2cnn3C)Cc2ccc(N3CC4(CNC4)CC3=O)cc21 [Example 34, 6-[(4R)-4-methyl-2-(1-methylpyrazolo[3,4-b]pyridin-4-yl)-3,4-dihydro-1H-isoquinolin-6-yl]-2,6-diazaspiro[3.4]octan-7-one] | 198 |
| Cc1cc(N2Cc3ccc(N4CCC5(CCNCC5)CC4)cc3C(C)C2)c2cnn(C)c2n1 (stereo not shown) [Example 5, 3-[2-(1,6-dimethylpyrazolo[3,4-b]pyridin-4-yl)-4-methyl-3,4-dihydro-1H-isoquinolin-6-yl]-3,9-diazaspiro[5.5]undecane] | 123 |
| C[C@H]1CN(c2ccnc3c2cnn3C)Cc2ccc(OC[C@@H]3CNCCN3C=O)cc21 [Example 45, (2S)-2-[[(4R)-4-methyl-2-(1-methylpyrazolo[3,4-b]pyridin-4-yl)-3,4-dihydro-1H-isoquinolin-6-yl]oxymethyl]piperazine-1-carbaldehyde] | 350 |
| C[C@H]1CN(c2ccnc3c2cnn3C)Cc2ccc(N3CCC(N4CCNCC4)CC3)cc21 [Example 10, (4R)-4-methyl-2-(1-methylpyrazolo[3,4-b]pyridin-4-yl)-6-(4-piperazin-1-yl-1-piperidyl)-3,4-dihydro-1H-isoquinoline] | 58 |

Further lines, results first:

| IC50 [nM] | Structure (SMILES) |
| --- | --- |
| 132 | Cc1cc(N2Cc3ccc(N4CCNCC4)nc3[C@@H](C)C2)c2cnn(C)c2n1 [Example 66, (8S)-6-(1,6-dimethylpyrazolo[3,4-b]pyridin-4-yl)-8-methyl-2-piperazin-1-yl-7,8-dihydro-5H-1,6-naphthyridine] |
| 282 | Cc1cc(N2Cc3ccc(N4CCN(C)CC4)nc3[C@@H](C)C2)c2cnn(C)c2n1 [Example 67, (8S)-6-(1,6-dimethylpyrazolo[3,4-b]pyridin-4-yl)-8-methyl-2-(4-methylpiperazin-1-yl)-7,8-dihydro-5H-1,6-naphthyridine] |
| 165 | Cc1cc(N2Cc3cnc(N4CCNCC4)cc3[C@@H](C)C2)c2cnn(C)c2n1 [Example 74, (4R)-2-(1,6-dimethylpyrazolo[3,4-b]pyridin-4-yl)-4-methyl-6-piperazin-1-yl-3,4-dihydro-1H-2,7-naphthyridine] |
| 115 | CO[C@H]1CN(c2cc3c(cn2)CN(c2cc(C)nc4c2cnn4C)C[C@@H]3C)CC[C@@H]1N [Example 73, (3S,4S)-3-methoxy-1-[(5R)-7-(1,6-dimethylpyrazolo[3,4-b]pyridin-4-yl)-5-methyl-6,8-dihydro-5H-2,7-naphthyridin-3-yl]piperidin-4-amine] |
| 249 | Cc1cc(N2Cc3ccc(OC4CCNCC4)nc3[C@@H](C)C2)c2cnn(C)c2n1 [Example 64, (8S)-6-(1,6-dimethylpyrazolo[3,4-b]pyridin-4-yl)-8-methyl-2-(4-piperidyloxy)-7,8-dihydro-5H-1,6-naphthyridine] |
| 218 | COC[C@H]1CN(c2cc3c(cn2)CN(c2cc(C)nc4c2cnn4C)C[C@@H]3C)CCN1 [Example 81, (4R)-2-(1,6-dimethylpyrazolo[3,4-b]pyridin-4-yl)-4-methyl-6-[(3R)-3-(methoxymethyl)piperazin-1-yl]-3,4-dihydro-1H-2,7-naphthyridine] |
